The nature of this data set: Plasma pharmacokinetics, non-compartmental analysis. The class given is in vivo, human. As for the experimental part:
On D1 and D15 of C1, blood samples for PK analysis were collected before the dose, and 0.5, 1, 2, 4, 8 and 24 h (C1D1 only) after the dose. C2D1 pre-dose concentration was used as the C1D15 24-h concentration for PK analysis. Additional pre-dose samples were collected on D1 of C3 and C4. Avapritinib PK parameters were obtained by non-compartmental analysis of the plasma concentration data versus nominal time using Phoenix WinNonlin© (version 8.0, Certara).
Plasma concentration–time profiles across dose levels and dose versus systemic exposure (Cmax and AUC) relationships were assessed graphically. Systemic exposure parameters of interest included the arithmetic and geometric mean, Cmax and AUC, and 90% CIs.

Like-named read-outs stand apart in the source and are kept apart here. Some results are limits rather than exact numbers.

Take `Cn1cc(-c2cc3c(N4CCN(c5ncc([C@@](C)(N)c6ccc(F)cc6)cn5)CC4)ncnn3c2)cn1` [avapritinib]: the “Time at which steady state was reached” value (QD dosing) was no more than 15 days. In addition, the half-life was greater than 20 h (human, plasma, oral, Cycle 1 Day 15, read-out: Steady state t½) and 19.8 to 38.3 h (human, plasma, oral, range across doses, read-out: Mean plasma elimination half-life). In addition, the AUC (human, plasma, oral, 200 mg QD, C1 D15, CV 54.2%, n = 16, read-out: Steady-state geometric mean AUC0-τ) was 7340 ng·h/mL. For the same compound, the Cmax (human, plasma, oral, 200 mg QD, C1 D15, CV 62.2%, n = 18, read-out: Steady-state geometric mean maximum plasma concentration (Cmax)) stood at 433 ng/mL. Under “human, plasma, single oral doses of 30 to 400 mg, read-out: Time to maximum plasma concentration (Tmax)”, the Tmax fell in the range of 2 to 4 h.

The values above are taken from paper PMC8674134, “Safety and efficacy of avapritinib in advanced systemic mastocytosis: the phase 1 EXPLORER trial” (Nature Medicine, 2021).
